This note sets out measurements from ChEMBL document CHEMBL5634166, “Structural modification of tanshinone IIA and their α-glucosidase inhibitory activity” (Bioorg Med Chem Lett, 2024).

Each structure is given as a SMILES string. Activity calls are given as the source filed them. No cut-off for these calls is given here. Bounds are passed on as bounds.

For one assay, the target named is T1, Alpha-glucosidase (Saccharomyces cerevisiae S288c, UniProt P53341+P38158+P07265). Briefly: Inhibition of alpha-glucosidase (unknown origin). The assay is classed as protein assay, Homo sapiens.
Regarding `Oc1ccc(/C=N/c2nnc(-c3ccc(O)cc3)o2)cc1`, the IC50 turned out to be 0.3 µM.

In the next assay the target is T1, Alpha-glucosidase. Briefly: Inhibition of Saccharomyces cerevisiae alpha-glucosidase using p-nitrophenyl-alpha-D-glucopyranoside as substrate preincubated for 5 mins followed by substrate addition and measured after 30 mins by spectrophotometric analysis. The assay is classed as protein assay.
The compound `C=C(C)[C@@H]1CC[C@]2(C(=O)NCC(=O)O)CC[C@]3(C)[C@H](CC[C@@H]4[C@@]5(C)Cc6c([nH]c7ccccc67)C(C)(C)[C@@H]5CC[C@]43C)[C@@H]12` yielded an IC50 of 0.04 µM. This counts as double-digit nanomolar.

The target in the next assay is T2, Alpha-glucosidase (Saccharomyces cerevisiae S288c) (UniProt P53341+P38158+P07265). Briefly: Potency index, ratio of acarbose IC50 to test compound IC50 for inhibition of yeast alpha glucosidase. Type of assay: protein assay.
On to `Cc1coc2c3ccc4c(c3c3oc(-c5ccc(Cl)cc5)nc3c12)CCCC4(C)C`, for which the Ratio IC50 is 30.

The target of another assay is T1, Alpha-glucosidase. Briefly: Inhibition of yeast alpha-glucosidase. The assay is classed as protein assay.
`Cc1coc2c3ccc4c(c3c3oc(-c5ccc(Cl)c(Cl)c5)nc3c12)CCCC4(C)C` came in with an IC50 of 6.67 µM. This counts as single-digit micromolar.

`Cc1coc2c3ccc4c(c3c3oc(-c5ccc(C(F)(F)F)cc5)nc3c12)CCCC4(C)C` yielded an IC50 of 2.33 µM.

`Cc1coc2c3ccc4c(c3c3oc(Cc5ccc(O)cc5)nc3c12)CCCC4(C)C` showed an IC50 of 3.21 µM.

In turn, `Cc1coc2c3ccc4c(c3c3oc(Cc5ccccc5)nc3c12)CCCC4(C)C` registered an IC50 of 4.14 µM.

Compound `Cc1coc2c3ccc4c(c3c3oc(Cc5ccc(O)c(O)c5)nc3c12)CCCC4(C)C` had an IC50 of 0.73 µM.

In turn, `Cc1coc2c3ccc4c(c3c3oc(-c5ccccc5)nc3c12)CCCC4(C)C` displayed an IC50 of 3.51 µM. Compared with the last compound, the IC50 is about 4.8-fold higher.

`Cc1coc2c1C(=O)C(=O)c1c-2ccc2c1CCCC2(C)C` [TANSHINONE IIA]: the IC50 stood at 11.39 µM.

Take `Cc1coc2c3ccc4c(c3c3oc(CCc5ccccc5)nc3c12)CCCC4(C)C`: the IC50 is 9.46 µM.

`Cc1coc2c3ccc4c(c3c3oc(-c5ccc(Cl)cc5)nc3c12)CCCC4(C)C` showed an IC50 of 3.45 µM.

Another assay addresses T2, Alpha-glucosidase (Saccharomyces cerevisiae S288c). Nature of the assay: Competitive inhibition of yeast alpha-glucosidase assessed as […] with constant Vmax by Lineweaver-Burk plot analysis. The assay is classed as protein assay.
In the case of `Cc1coc2c3ccc4c(c3c3oc(Cc5ccc(O)c(O)c5)nc3c12)CCCC4(C)C`, the inhibition result is “Active”.

For a further assay, the target named is T1, Alpha-glucosidase. Nature of the assay: Binding affinity to yeast alpha glucosidase assessed as inhibition constant. The assay is classed as protein assay.
For the compound `Cc1coc2c3ccc4c(c3c3oc(Cc5ccc(O)c(O)c5)nc3c12)CCCC4(C)C`, the Ki was found to be 12.1 µM.

Another assay deals with T2, Alpha-glucosidase (Saccharomyces cerevisiae S288c). Nature of the assay: Inhibition of yeast alpha glucosidase at 50 uM relative to control. Type of assay: protein assay.
For `Cc1coc2c3ccc4c(c3c3oc(-c5ccc(Cl)c(Cl)c5)nc3c12)CCCC4(C)C`, the inhibition was more than 80%.

For `Cc1coc2c3ccc4c(c3c3oc(-c5ccc(C(F)(F)F)cc5)nc3c12)CCCC4(C)C`, the inhibition is more than 80%.

`Cc1coc2c3ccc4c(c3c3oc(Cc5ccc(O)cc5)nc3c12)CCCC4(C)C` showed an inhibition of more than 80%.

Consider `Cc1coc2c3ccc4c(c3c3oc(Cc5ccccc5)nc3c12)CCCC4(C)C`, for which the inhibition is more than 80%.

The compound `Cc1coc2c3ccc4c(c3c3oc(Cc5ccc(O)c(O)c5)nc3c12)CCCC4(C)C` showed an inhibition of more than 80%.

In turn, `Cc1coc2c3ccc4c(c3c3oc(-c5ccccc5)nc3c12)CCCC4(C)C` returned an inhibition of more than 80%.

In turn, `Cc1coc2c3ccc4c(c3c3oc(-c5ccccc5C(F)(F)F)nc3c12)CCCC4(C)C` had an inhibition of less than 80%.

`COc1cc(-c2nc3c(o2)c2c4c(ccc2c2occ(C)c32)C(C)(C)CCC4)ccc1O` showed an inhibition of less than 80%.

`Cc1coc2c3ccc4c(c3c3oc(-c5ccc(Br)cc5)nc3c12)CCCC4(C)C` yielded an inhibition of less than 80%.

`Cc1coc2c1C(=O)C(=O)c1c-2ccc2c1CCCC2(C)C` [TANSHINONE IIA] had an inhibition of more than 80%.

In the case of `Cc1coc2c3ccc4c(c3c3oc(CCCc5ccccc5)nc3c12)CCCC4(C)C`, the inhibition was less than 80%.

Take `Cc1coc2c3ccc4c(c3c3oc(CCc5ccccc5)nc3c12)CCCC4(C)C`: the inhibition is more than 80%.

`COc1ccc(-c2nc3c(o2)c2c4c(ccc2c2occ(C)c32)C(C)(C)CCC4)c(OC)c1` returned an inhibition of less than 80%.

The compound `Cc1coc2c3ccc4c(c3c3oc(-c5ccccc5F)nc3c12)CCCC4(C)C` had an inhibition of less than 80%.

Compound `Cc1coc2c3ccc4c(c3c3oc(-c5ccc(Cl)cc5)nc3c12)CCCC4(C)C` registered an inhibition of more than 80%.

Broadly, the IC50 is the midpoint of a concentration-inhibition curve. A word on the inhibition: it is the relative decrease from the control value, in per cent. What is called Ki is the dissociation constant of the complex between target and ligand, obtained from inhibition or displacement.
